The target of assay [1] is IRAK4 enzyme (Homo sapiens (Human), UniProt Q9NWZ3). Briefly: IRAK4 Biochemical Assay (TR-FRET, STK1 KinEASE). As for the experimental part:
IRAK4 enzyme (Carna Biosciences, Chuo-ku, Kobe, Japan) activity was measured by detecting phosphorylated peptide substrate formation using an antibody against the phosphorylated peptide substrate. This is a time-resolved fluorescence resonance energy transfer (TR-FRET) immunoassay, based on the STK1 KinEASE Assay (Cisbio, Bedford, Mass.). The assay was designed as a simple two-step, endpoint assay (a 5 μl enzyme reaction followed by 5 μl stop and detect Solution) performed in ProxiPlate-384 Plus plates (Perkin Elmer, Waltham, Mass.). […] Compounds diluted in DMSO were spotted into 384 well plates using a Labcyte® Echo 550 Liquid Handling System prior to addition of IRAK4 enzyme and peptide substrate. Reaction solutions were delivered using a Multi-Flo (Bio-Tek Instruments). The enzyme and peptide solution was incubated with compound for 15 minutes at room temp before the reaction was initiated by the addition of ATP. The standard 5 μl reaction mixture contained 500 μM ATP, […] peptide (STK1 Peptide), 0.75 nM of IRAK4 in reaction buffer (50 mM HEPES, pH 7.0, 0.02% NaN3, 0.01% BSA, 0.1 mM Orthovanadate, 5 mM […], 0.025% NP-40, 1 mM DTT). After 120 min of incubation at room temperature, 5 μl of Stop and Detect Solution (1:100 Cryptate labeled anti-phosphorylated peptide antibody solution and 125 nM Tracer in a 50 mM HEPES pH 7.0 detection buffer containing sufficient EDTA) was added. The plate was then further incubated for 60 minutes at room temperature and read on Envision 2103 Multilabeled reader (PerkinElmer) with excitation/emission/FRET emission at 340 nm/615 nm665 nm, respectively. Fluorescence intensities at 615 nm and 665 nm emission wavelengths were expressed as aratio (665 nm/615 nm). Percentage of inhibition was calculated as below: % Inhibition=100×(Ratiosample−Ratio0% Inhibition)/(Ratio100% Inhibition−Ratio0% Inhibition)
The 0% inhibition value comes from control wells lacking inhibitor.
(In general: In TR-FRET formats the signal depends on donor and acceptor labels being close together.)

Assay [2] has as its system TNFα. Nature of the assay: IRAK4 Monocyte TNFα Cell Based Assay. Details: species or system human. As to conditions: human monocytes. The essentials:
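Human monocytes (5,000/well) pretreated with compound 1 h at 37 °C (0.1% DMSO final), then stimulated with 50 pg/ml LPS for 4 h. Secreted TNFα measured by TR-FRET two-antibody detection after overnight incubation at room temperature; % control relative to unstimulated and LPS-stimulated wells.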

[3] abbreviates: Homo sapiens, Monocyte, second part of Table 2, compounds 33-343, unit inferred, read-out: EC50 MONO TNF HTRF.
Where [4] appears, read: second part of Table 2, compounds 33-343, unit inferred, read-out: EC50 MONO TNF HTRF.
Setting [5] is: compounds 1-32, read-out: IC50 HTRF.
Where [6] appears, read: Homo sapiens, Monocyte, LPS stimulated, compounds 1-32, read-out: EC50 TNF.

Where two headings read alike, the source gives them in different places. Where only a bound is given, the exact number is not on record here.

Chain of IRAK4 enzyme (Q9NWZ3 whole entry): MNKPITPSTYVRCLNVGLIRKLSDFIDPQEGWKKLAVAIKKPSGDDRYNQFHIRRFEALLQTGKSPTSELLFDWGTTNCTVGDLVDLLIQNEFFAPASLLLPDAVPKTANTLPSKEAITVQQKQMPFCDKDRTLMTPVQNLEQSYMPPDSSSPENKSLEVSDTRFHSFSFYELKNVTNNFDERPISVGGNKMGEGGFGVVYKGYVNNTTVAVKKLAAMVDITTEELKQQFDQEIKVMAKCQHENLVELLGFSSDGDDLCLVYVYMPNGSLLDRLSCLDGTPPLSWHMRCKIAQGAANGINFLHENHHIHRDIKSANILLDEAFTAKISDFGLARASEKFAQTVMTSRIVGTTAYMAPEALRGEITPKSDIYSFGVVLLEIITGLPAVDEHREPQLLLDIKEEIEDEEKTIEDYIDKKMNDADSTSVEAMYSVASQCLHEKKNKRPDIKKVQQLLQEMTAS

Turning to `CC(C)Nc1cc(-c2ccc3cc(C#N)cnn23)ncc1-c1nnc(N2CC(O)(C(F)(F)F)C2)s1` [Example 297, 7-(5-(5-(3-hydroxy-3-(trifluoromethyl)azetidin-1-yl)-1,3,4-thiadiazol-2-yl)-4-(isopropylamino)pyridin-2-yl)pyrrolo[1,2-b]pyridazine-3-carbonitrile], 0.67 nM corresponded to half-maximal inhibition in assay [1] (IC50). In addition, the EC50 in assay [2] (setting [3]) was 10 nM.

Consider “(S)-7-(5-(5-(2-(aminomethyl)pyrrolidine-1-carbonyl)-1,3,4-thiadiazol-2-yl)-4-(isopropylamino)pyridin-2-yl)pyrrolo[1,2-b]pyridazine-3-carbonitrile [Compound 242]”, for which, in assay [1] (second part of Table 2, compounds 33-343, unit inferred, read-out: IC50 IRAK4-HTBS), the IC50 amounted to 2.76 nM. The EC50 in assay [2] (setting [4]) was determined as 752 nM.

On to `CC(C)Nc1cc(-c2ccc3cc(C#N)cnn23)ncc1-c1nnc(C(=O)N2CC[C@H](O)C2)s1` [Example 16, (S)-7-(5-(5-(3-hydroxypyrrolidine-1-carbonyl)-1,3,4-thiadiazol-2-yl)-4-(isopropylamino)pyridin-2-yl)pyrrolo[1,2-b]pyridazine-3-carbonitrile], for which the IC50 in assay [1] (setting [5]) was below 1 nM. Moreover, the half-maximal effective concentration (EC50) in assay [2] (setting [6]) was determined as 35 nM. Take `CC(C)Nc1cc(-c2ccc3cc(C#N)cnn23)ncc1-c1nnc(C(=O)N2CC[C@H](CO)C2)s1` [Example 221, (S)-7-(5-(5-(3-(hydroxymethyl)pyrrolidine-1-carbonyl)-1,3,4-thiadiazol-2-yl)-4-(isopropylamino)pyridin-2-yl)pyrrolo[1,2-b]pyridazine-3-carbonitrile]: inhibition in assay [1] was half-maximal at 0.92 nM (IC50). For the same compound, in assay [2] (setting [3]), the EC50 amounted to 2320 nM. In the case of `CC(C)Nc1cc(-c2ccc3cc(C#N)cnn23)ncc1-c1nnc(N2C[C@@H]3C[C@H]2CO3)s1` [Compound 238, 7-(5-(5-((1S,4S)-2-oxa-5-azabicyclo[2.2.1]heptan-5-yl)-1,3,4-thiadiazol-2-yl)-4-(isopropylamino)pyridin-2-yl)pyrrolo[1,2-b]pyridazine-3-carbonitrile], the IC50 in assay [1] is 0.46 nM. In addition, the EC50 in assay [2] (setting [3]) was 12.6 nM. `CC(=O)NC12CCC(c3nnc(-c4cnc(-c5ccc6cc(C#N)cnn56)cc4NC4COC4)s3)(CC1)OC2` [Example 198, N-(1-(5-(6-(3-cyanopyrrolo[1,2-b]pyridazin-7-yl)-4-(oxetan-3-ylamino)pyridin-3-yl)-1,3,4-thiadiazol-2-yl)-2-oxabicyclo[2.2.2]octan-4-yl)acetamide] yielded an IC50 in assay [1] of 0.79 nM. As to `CC(=O)N[C@H]1CCN(c2nnc(-c3cnc(-c4ccc5cc(C#N)cnn45)cc3NC(C)C)s2)CC1(F)F` [Example 169, (S)-N-(1-(5-(6-(3-cyanopyrrolo[1,2-b]pyridazin-7-yl)-4-(isopropylamino)pyridin-3-yl)-1,3,4-thiadiazol-2-yl)-3,3-difluoropiperidin-4-yl)acetamide], in assay [1], half-maximal inhibition (IC50) required 0.93 nM. Besides, in assay [2] (setting [3]), the EC50 was 220 nM. `CC(C)Nc1cc(-c2ccc3cc(C#N)cnn23)ncc1-c1nnc(N2CC3(COC3)C2)s1` [Compound 252, 7-(5-(5-(2-oxa-6-azaspiro[3.3]heptan-6-yl)-1,3,4-thiadiazol-2-yl)-4-(isopropylamino)pyridin-2-yl)pyrrolo[1,2-b]pyridazine-3-carbonitrile] came in with an IC50 in assay [1] of 0.29 nM. Also, the EC50 in assay [2] (setting [3]) turned out to be 7 nM.

For the compound `CC(C)Nc1cc(-c2ccc3cc(C#N)cnn23)ncc1-c1nnc(CCNC(=O)OC(C)(C)C)s1` [Example 1, tert-butyl (2-(5-(6-(3-cyanopyrrolo[1,2-b]pyridazin-7-yl)-4-(isopropylamino)pyridin-3-yl)-1,3,4-thiadiazol-2-yl)ethyl)carbamate], the IC50 in assay [1] (setting [5]) is 1.5 nM. Moreover, in assay [2] (setting [6]), the EC50 amounted to 309 nM.

The compound `CC(C)Nc1cc(-c2ccc3cc(C#N)cnn23)ncc1-c1nnc(N2CCOCC2)s1` [Example 131, 7-(4-(isopropylamino)-5-(5-morpholino-1,3,4-thiadiazol-2-yl)pyridin-2-yl)pyrrolo[1,2-b]pyridazine-3-carbonitrile] registered an IC50 in assay [1] of 0.53 nM. In addition, in assay [2] (setting [3]), the EC50 turned out to be 14.3 nM. With `CC(C)Nc1cc(-c2ccc3cc(C#N)cnn23)ncc1-c1nnc(C(=O)N2CCC[C@H]2CN)s1` [Example 229, (S)-7-(5-(5-(2-(aminomethyl)pyrrolidine-1-carbonyl)-1,3,4-thiadiazol-2-yl)-4-(isopropylamino)pyridin-2-yl)pyrrolo[1,2-b]pyridazine-3-carbonitrile], in assay [1], the IC50 was 0.64 nM. Same read-out and setting: under `CC(=O)N1CCN(C(=O)N[C@@H]2[C@@H]3CC[C@H]2CN(c2nnc(-c4cnc(-c5ccc6cc(C#N)cnn56)cc4NC(C)C)s2)C3)CC1` [Example 104, 4-acetyl-N-((1R,5S,8s)-3-(5-(6-(3-cyanopyrrolo[1,2-b]pyridazin-7-yl)-4-(isopropylamino)pyridin-3-yl)-1,3,4-thiadiazol-2-yl)-3-azabicyclo[3.2.1]octan-8-yl)piperazine-1-carboxamide] stands 0.99 nM; under `CC(C)Nc1cc(-c2ccc3cc(C#N)cnn23)ncc1-c1nnc([C@H]2C[C@H](NC3COC3)C2)s1` [Example 283, 7-(4-(isopropylamino)-5-(5-((1r,3r)-3-(oxetan-3-ylamino)cyclobutyl)-1,3,4-thiadiazol-2-yl)pyridin-2-yl)pyrrolo[1,2-b]pyridazine-3-carbonitrile], 0.66 nM. `CC(=O)NC12CCC(c3nnc(-c4cnc(-c5ccc6cc(C#N)cnn56)cc4N[C@H](C)C#N)s3)(CC1)CC2` [Example 72, (R)—N-(4-(5-(4-((1-cyanoethyl)amino)-6-(3-cyanopyrrolo[1,2-b]pyridazin-7-yl)pyridin-3-yl)-1,3,4-thiadiazol-2-yl)bicyclo[2.2.2]octan-1-yl)acetamide] came in with an IC50 in assay [1] of 0.54 nM. In assay [1], `CC(C)Nc1cc(-c2ccc3cc(C#N)cnn23)ncc1-c1nnc(N2C[C@H]3CC[C@@H](C2)[C@@H]3NC(=O)[C@@H](C)O)s1` [Example 90, (R)—N-((1R,5S,8s)-3-(5-(6-(3-cyanopyrrolo[1,2-b]pyridazin-7-yl)-4-(isopropylamino)pyridin-3-yl)-1,3,4-thiadiazol-2-yl)-3-azabicyclo[3.2.1]octan-8-yl)-2-hydroxypropanamide] displayed an IC50 of 1.39 nM. Consider `CC(C)Nc1cc(-c2ccc3cc(C#N)cnn23)ncc1-c1nnc(C(=O)N2CCC[C@@H]2CN)s1` [Compound 230, (R)-7-(5-(5-(2-(aminomethyl)pyrrolidine-1-carbonyl)-1,3,4-thiadiazol-2-yl)-4-(isopropylamino)pyridin-2-yl)pyrrolo[1,2-b]pyridazine-3-carbonitrile], for which the IC50 in assay [1] worked out at 0.74 nM. `CC(C)Nc1cc(-c2ccc3cc(C#N)cnn23)ncc1-c1nnc(N2C[C@H]3CC[C@@H](C2)[C@@H]3NC(=O)N2CCN(C)CC2)s1` [Example 96, N-((1R,5S,8s)-3-(5-(6-(3-cyanopyrrolo[1,2-b]pyridazin-7-yl)-4-(isopropylamino)pyridin-3-yl)-1,3,4-thiadiazol-2-yl)-3-azabicyclo[3.2.1]octan-8-yl)-4-methylpiperazine-1-carboxamide] showed an IC50 in assay [1] of 0.58 nM. The same measure, in the same setting: under `CC(C)Nc1cc(-c2ccc3cc(C#N)cnn23)ncc1-c1nnc(C2CCNCC2)s1` [Example 129, 7-(4-(isopropylamino)-5-(5-(piperidin-4-yl)-1,3,4-thiadiazol-2-yl)pyridin-2-yl)pyrrolo[1,2-b]pyridazine-3-carbonitrile] stands 0.59 nM. For `CC(=O)N[C@H]1CC[C@H](c2nnc(-c3cnc(-c4ccc5cc(C#N)cnn45)cc3NC3(C)CCOCC3)s2)CC1` [Compound 268, N-((1r,4r)-4-(5-(6-(3-cyanopyrrolo[1,2-b]pyridazin-7-yl)-4-((4-methyltetrahydro-2H-pyran-4-yl)amino)pyridin-3-yl)-1,3,4-thiadiazol-2-yl)cyclohexyl)acetamide], the EC50 in assay [2] (setting [4]) turned out to be 14.1 nM. Same read-out and setting: for `CNc1cc(-c2ccc3cc(C#N)cnn23)ncc1-c1nnc(N2C[C@H]3CC[C@@H](C2)[C@@H]3NC(C)=O)s1` [Example 292, N-((1R,5S,8s)-3-(5-(6-(3-cyanopyrrolo[1,2-b]pyridazin-7-yl)-4-(methylamino)pyridin-3-yl)-1,3,4-thiadiazol-2-yl)-3-azabicyclo[3.2.1]octan-8-yl)acetamide] the value was 6.7 nM.

For orientation: IC50 means the concentration that gives 50% inhibition. The term EC50 denotes the concentration giving half of the maximal effect.

These data come from patent US11046686B2, “Thiadiazole IRAK4 compounds” (Gilead Sciences, Inc., priority 2018, dated 2021).
